These results are taken from patent publication US10604474B2, “Crystalline form of gamma-aminobutyric acid and preparation method thereof” (NANTONG LICHENG BIOLOGICAL ENGINEERING CO., LTD, priority 2016, dated 2020).

Holding throughout (type): physicochemical
The nature of data set [1]: Angle of repose (flowability) measured with a 1050/70 type goniometer. The following applies: slightly ground, smeared on horizontal quartz plate; smaller than 40° meets flowability requirements. The protocol: It is generally believed that the smaller the angle of repose, the better the flowability. When the angle of repose is smaller than 40°, flowability requirements in the production process can be met.

Data set [2] is described as follows: Bulk density.
A short description of data set [3]: Moisture absorption and agglomeration.
A short description of data set [4]: Scanning Electron Microscopy (SEM) characterization of crystals.

The structures appear in SMILES notation.

With `NCCCC(=O)O` [CN101928736A, CN103509831A, CN104531795A, CN102242161A] [γ-aminobutyric acid, reference compound], the “Angle of repose (flowability)” value in data set [1] amounted to 50°. Further, the Bulk density in data set [2] came to 0.65 g/mL. Moreover, the Agglomeration result in data set [3] is on record as “Serious agglomeration”.

For `NCCCC(=O)O` [Embodiment 1, γ-aminobutyric acid], in data set [4], the Particle size distribution result is “uniform”. The “Angle of repose (flowability)” value in data set [1] was determined as 35 °. Moreover, the Bulk density in data set [2] worked out at 0.8 g/mL. Also, the “Susceptibility to absorbing moisture and agglomeration” value (from here on “Susceptibility”) in data set [3] is “not susceptible to absorbing moisture and agglomeration”.

Consider `NCCCC(=O)O` [Embodiment 2, γ-aminobutyric acid], for which, in data set [4], the Particle size distribution entry is given as “uniform”. Further, in data set [1], the “Angle of repose (flowability)” value was 37 °. Also, the Bulk density in data set [2] was found to be 0.7 g/mL. Besides, the “Susceptibility” value in data set [3] was “not susceptible to absorbing moisture and agglomeration”.

For `NCCCC(=O)O` [Embodiment 3, γ-aminobutyric acid], the Particle size distribution result in data set [4] was “uniform”. Further, in data set [1], the “Angle of repose (flowability)” value amounted to 34 °. In data set [2], this compound had a Bulk density of 0.85 g/mL. For the same compound, the “Susceptibility” value in data set [3] was “not susceptible to absorbing moisture and agglomeration”.

Consider `NCCCC(=O)O` [Embodiment 4, γ-aminobutyric acid], for which the Particle size distribution entry in data set [4] is recorded as “uniform”. In addition, the “Angle of repose (flowability)” value in data set [1] is listed as 36 °. The same compound showed a Bulk density in data set [2] of 0.75 g/mL. Moreover, in data set [3], the “Susceptibility” value is “not susceptible to absorbing moisture and agglomeration”.

As to `NCCCC(=O)O` [Embodiment 5, γ-aminobutyric acid], in data set [4], the Particle size distribution result is reported as “uniform”. Further, the “Angle of repose (flowability)” value in data set [1] was found to be 37 °. In addition, the Bulk density in data set [2] was found to be 0.7 g/mL. For the same compound, the “Susceptibility” value in data set [3] was “not susceptible to absorbing moisture and agglomeration”.

As to `NCCCC(=O)O` [Embodiment 6, γ-aminobutyric acid], in data set [4], the Particle size distribution entry is listed as “uniform”. Also, in data set [1], the “Angle of repose (flowability)” value is recorded as 35 °. This compound came in with a Bulk density in data set [2] of 0.8 g/mL. The “Susceptibility” value in data set [3] was “not susceptible to absorbing moisture and agglomeration”.

For `NCCCC(=O)O` [Present invention, γ-aminobutyric acid], the “Angle of repose (flowability)” value in data set [1] turned out to be 35°. The same compound showed a Bulk density in data set [2] of 0.80 g/mL. Moreover, the Agglomeration entry in data set [3] is “No agglomeration”.
